Test results reported in patent US11268950B2, “Use of engineered renal tissues in assays” (Organovo, Inc., priority 2016, dated 2022).
“And” between values parts separate entries of the source, which are not always exact repeats. Equal values may be shown once. “Also recorded” adds a separate entry of the source.

Tests used:
3D PT tissues [1] = test: GGT activity of 3D PT tissues (epithelial function); type: cell-based, human; settings: 5 μM cisplatin, daily for 7 days
Method: GGT activity was measured according to the manufacturer's protocol (Sigma Aldrich, St. Louis, Mo.). Tissues were washed twice with DPBS and lysed in GGT assay buffer in a Precellys® lysis tube (Precellys, Rockville, Md.). Lysate was assessed for GGT activity by comparison to a standard curve integration of absorbance normalized for volume and duration of incubation period at 37° C. using GraphPad Prism® software (GraphPad, San Diego, Calif.). Data shown represent the average GGT activity in mIU/ml for analysis of GGT function over time, or percent relative to vehicle for toxicity studies.

3D PT tissues [2] = test: LDH release from 3D PT tissues; type: cell-based, human; settings: 5 μM cisplatin alone, treatment day 5 (peak)
Method: Lactate dehydrogenase (LDH) activity assay was performed according to the manufacturer's protocol (Abcam, Cambridge, Mass.). Conditioned media was collected from 3D PT tissues and further diluted in fresh media to ensure that the LDH activity of the sample was within the linear range of the assay. Samples were measured on a microplate reader (BMG Labtech, Cary, N.C.). LDH activity was determined by standard curve integration of absorbance normalized for volume and duration using GraphPad Prism® software (GraphPad, San Diego, Calif.). Data shown represent the fold change in LDH activity relative to vehicle control for each day of sampling.

3D PT tissues [3] = test: PCNA staining, RPTEC proliferation in 3D PT tissues; type: cell-based, human; settings: daily for 7 days
Method: 3D PT were fixed overnight in 2% paraformaldehyde (Electron Microscopy Sciences, Hatfield, Pa.). Tissues were oriented for transverse sectioning by pre-embedding in HistoGel™ (Thermo Fisher, Carlsbad, Calif.) and were then dehydrated and infiltrated with paraffin by automated processing on a Tissue-Tek VIP® tissue processing system (Sakura Finetek USA, Torrance, Calif.). Tissues were sectioned at 5 μM on a Leica® Reichert-Jung® Histocut microtome (Leica Biosystems, Buffalo Grove, Ill.). Hematoxylin and eosin (H&E) or Gomori's trichrome (TCM) stains were generated using a Leica® Autostainer XL (Leica Biosystems, Buffalo Grove, Ill.) according to manufacturer's instructions. Immunohistochemistry was performed as previously described (King et al., 2013) using the primary antibodies in Table 1. Following overnight incubation with primary antibodies at 4° C., sections were stained with AlexaFluor®-conjugated secondary antibodies (Thermo Fisher, Carlsbad, Calif.) at 1:200 dilution. For P-gp and SGLT2 detection, tyramide signal amplification was performed according to the manufacturer's instructions (Thermo Fisher, Carlsbad, Calif.). Slides were counterstained and mounted with FluoroGel II with DAPI (Electron Microscopy Sciences, Hatfield, Pa.). H&E and TCM images were acquired on a Zeiss® Axioskop with Zeiss® Zen software (Zeiss Microscopy, Thornwood, NY). Immunofluorescent images were acquired on a Zeiss® Axio® Imager A2 with Zeiss® Zen software.

3D PT tissues [4] = test: H&E histology of 3D PT tissues; settings: daily for 7 days; 5 μM cisplatin, 1 mM cimetidine
Method: 3D PT were fixed overnight in 2% paraformaldehyde (Electron Microscopy Sciences, Hatfield, Pa.). Tissues were oriented for transverse sectioning by pre-embedding in HistoGel™ (Thermo Fisher, Carlsbad, Calif.) and were then dehydrated and infiltrated with paraffin by automated processing on a Tissue-Tek VIP® tissue processing system (Sakura Finetek USA, Torrance, Calif.). Tissues were sectioned at 5 μM on a Leica® Reichert-Jung® Histocut microtome (Leica Biosystems, Buffalo Grove, Ill.). Hematoxylin and eosin (H&E) or Gomori's trichrome (TCM) stains were generated using a Leica® Autostainer XL (Leica Biosystems, Buffalo Grove, Ill.) according to manufacturer's instructions. Immunohistochemistry was performed as previously described (King et al., 2013) using the primary antibodies in Table 1. Following overnight incubation with primary antibodies at 4° C., sections were stained with AlexaFluor®-conjugated secondary antibodies (Thermo Fisher, Carlsbad, Calif.) at 1:200 dilution. For P-gp and SGLT2 detection, tyramide signal amplification was performed according to the manufacturer's instructions (Thermo Fisher, Carlsbad, Calif.). Slides were counterstained and mounted with FluoroGel II with DAPI (Electron Microscopy Sciences, Hatfield, Pa.). H&E and TCM images were acquired on a Zeiss® Axioskop with Zeiss® Zen software (Zeiss Microscopy, Thornwood, NY). […]

3D PT tissues [5] = settings: OCT2 inhibition by cimetidine
Description: 3D PT Novo View™ Tissues were fabricated as described (Nguyen et al., 2016). Briefly, cultured renal fibroblasts and HUVEC were combined in a 50:50 ratio and resuspended in NovoGel® Bio-Ink, and then bioprinted onto 0.4 μm Transwell® clear polyester membrane inserts in a 24-well plate (Coming Costar, Coming, NY) using a NovoGen Bioprinter® Instrument (Organovo Inc., San Diego, Calif.) with previously established protocols (Forgacs et al., 2012; Murphy et al., 2015; Nguyen et al., 2016). Following bioprinting, NovoView′ Tissues were cultured in NovoView™ Kidney Media (Organovo, San Diego, Calif.). On culture day 3, primary RPTEC cells were added to the tissues in a suspension of 1.25×10^6 cells/ml in RPTEC media. […]
Assessment of metabolic activity as a surrogate for tissue viability and health was performed by alamarBlue™ assay according to the manufacturer's protocol (Thermo Fisher, Carlsbad, Calif.). […] After incubation, the alamarBlue′ solution was removed and fluorescence was measured on a BMG Labtech POLARstar® Omega reader (Cary, N.C.) with an excitation filter of 560 nm and an emission filter of 590 nm. Graphed data represent the percent relative fluorescence units (RFU) compared to blank for metabolic activity over time, or the percent RFU compared to vehicle control for toxicity studies.

[6] = humans, Zhang and Zhou, 2012; cited from earlier work
3D PT tissues [7] = test: Passive permeability (Papp) of Lucifer yellow across 3D PT tissues; type: in vitro ADME, human; settings: for Papp: Lucifer yellow 250 μM, 1 h, individual tissues 1-6 and average
Method: Tissues were then dosed with 250 μM Lucifer yellow (Thermo Fisher, Carlsbad, Calif.) to the apical compartment and fresh assay buffer in the basolateral (receiver) compartment. Following incubation for 1 h at 37° C., samples were taken from both the apical and basolateral compartments. Fluorescence in each sample was measured on a BMG plate reader with an excitation filter of 490 nm and an emission filter of 540 nm (BMG Labtech, Cary, N.C.) and normalized to a standard curve for quantification. Papp was calculated with equation 1, where V represents the volume of Lucifer yellow solution, T is the duration of the incubation, D0 is the concentration of Lucifer yellow applied to the cells, and A is the growth area of the Transwell® insert. Papp=(V/A×D0))*(ΔD/ΔT) Equation 1: […]

P-gp = target: T1, P-gp (Homo sapiens, UniProt P08183); test: Rhodamine 123 transport / P-gp efflux in 3D PT tissues; type: cell-based; settings: image quantification, 2 h, 5 μM zosuquidar
T1 construct: P-gp protein expression was detected at the apical surface of the RPTEC cells in the 3D PT model; endogenous in cells; host or cells: bioprinted 3D PT tissue: primary human RPTEC on an interstitium of primary human renal fibroblasts and HUVEC
T1 sequence (P08183 whole entry): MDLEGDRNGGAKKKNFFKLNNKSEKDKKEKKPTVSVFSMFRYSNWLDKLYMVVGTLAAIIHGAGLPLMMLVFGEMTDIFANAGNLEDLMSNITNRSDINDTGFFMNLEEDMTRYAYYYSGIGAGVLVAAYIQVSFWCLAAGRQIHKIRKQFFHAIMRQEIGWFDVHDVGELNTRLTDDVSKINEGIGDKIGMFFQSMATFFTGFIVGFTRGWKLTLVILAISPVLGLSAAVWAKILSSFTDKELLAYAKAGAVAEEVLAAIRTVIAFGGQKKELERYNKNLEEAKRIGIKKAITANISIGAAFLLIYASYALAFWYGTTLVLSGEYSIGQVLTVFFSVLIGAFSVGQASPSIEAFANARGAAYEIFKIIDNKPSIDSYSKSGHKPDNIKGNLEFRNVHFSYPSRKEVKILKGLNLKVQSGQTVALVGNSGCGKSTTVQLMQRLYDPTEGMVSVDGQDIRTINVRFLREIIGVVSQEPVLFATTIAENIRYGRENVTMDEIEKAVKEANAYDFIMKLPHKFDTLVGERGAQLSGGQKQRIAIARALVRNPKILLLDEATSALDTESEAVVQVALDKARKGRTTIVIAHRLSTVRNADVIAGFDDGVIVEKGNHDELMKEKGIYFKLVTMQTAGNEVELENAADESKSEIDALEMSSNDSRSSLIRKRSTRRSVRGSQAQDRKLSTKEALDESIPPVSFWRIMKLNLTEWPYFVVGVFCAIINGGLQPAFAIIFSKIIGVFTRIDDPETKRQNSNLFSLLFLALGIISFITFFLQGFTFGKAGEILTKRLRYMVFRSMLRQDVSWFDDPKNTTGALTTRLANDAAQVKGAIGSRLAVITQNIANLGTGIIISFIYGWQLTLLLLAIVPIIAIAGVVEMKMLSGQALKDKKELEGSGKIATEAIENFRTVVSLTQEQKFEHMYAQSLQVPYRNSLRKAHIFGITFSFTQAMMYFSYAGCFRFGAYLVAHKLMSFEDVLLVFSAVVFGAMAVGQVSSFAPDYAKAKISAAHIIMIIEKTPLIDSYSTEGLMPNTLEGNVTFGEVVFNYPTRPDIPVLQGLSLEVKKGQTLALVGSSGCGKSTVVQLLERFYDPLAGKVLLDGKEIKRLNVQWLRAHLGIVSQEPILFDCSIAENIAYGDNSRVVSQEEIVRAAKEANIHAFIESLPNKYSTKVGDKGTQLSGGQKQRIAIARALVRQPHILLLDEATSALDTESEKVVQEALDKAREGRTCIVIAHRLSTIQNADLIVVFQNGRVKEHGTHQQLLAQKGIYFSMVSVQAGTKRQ
Method: Both apical and basolateral sides of tissues were then pre-incubated for 20 min at 37° C. in assay buffer in the presence or absence of 5 μM zosuquidar (Sigma Aldrich, St. Louis, Mo.). Following pre-treatment, tissues were dosed on the basolateral side with 1 μM rhodamine 123 (Molecular Probes, Eugene, Oreg.) with or without 5 μM zosuquidar for 2h at 37° C. After incubation, the tissues were washed with cold assay buffer, fixed with 2% PFA, and cryosectioned. Images were captured at the same exposure time across all conditions. Fluorescence intensity, corrected for background and relative area, was calculated in Image J (National Institutes of Health, Bethesda, Md.) and graphed as fold change relative to control using GraphPad Prism® software (GraphPad, San Diego).

SGLT2 = target: T2, SGLT2 (Homo sapiens, UniProt P31639); test: Glucose (2-DG) uptake colorimetric assay in 3D PT tissues; type: cell-based
T2 construct: SGLT2 protein expression was detected primarily at the apical surface of RPTEC on 3D PT tissues; endogenous in cells; host or cells: bioprinted 3D PT tissue: primary human RPTEC on an interstitium of primary human renal fibroblasts and HUVEC
T2 sequence (P31639 1-672): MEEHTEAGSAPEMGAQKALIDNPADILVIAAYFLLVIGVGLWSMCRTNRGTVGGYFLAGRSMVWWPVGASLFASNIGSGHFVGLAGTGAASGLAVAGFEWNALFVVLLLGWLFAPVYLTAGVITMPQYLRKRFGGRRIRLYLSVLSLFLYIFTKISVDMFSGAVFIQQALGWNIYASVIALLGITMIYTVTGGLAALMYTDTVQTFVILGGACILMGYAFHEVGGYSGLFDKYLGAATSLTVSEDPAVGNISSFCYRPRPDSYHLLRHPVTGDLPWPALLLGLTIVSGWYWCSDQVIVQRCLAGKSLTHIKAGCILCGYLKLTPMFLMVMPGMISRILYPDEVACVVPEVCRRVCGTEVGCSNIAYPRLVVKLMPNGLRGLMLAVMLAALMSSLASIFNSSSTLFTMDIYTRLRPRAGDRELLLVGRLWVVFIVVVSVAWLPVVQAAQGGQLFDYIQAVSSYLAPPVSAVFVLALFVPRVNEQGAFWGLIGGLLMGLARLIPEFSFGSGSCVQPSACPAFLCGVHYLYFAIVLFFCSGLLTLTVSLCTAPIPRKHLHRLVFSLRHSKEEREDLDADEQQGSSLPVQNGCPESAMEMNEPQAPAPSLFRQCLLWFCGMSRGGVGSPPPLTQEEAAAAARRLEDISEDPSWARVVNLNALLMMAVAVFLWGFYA
Method: Glucose uptake in 3D PT tissues was detected and quantified according to the manufacturer's protocol (Abeam, Cambridge, Mass.). Insulin-Transferrin-Selenium (Gibco, Carlsbad, Calif.) was used to stimulate glucose uptake and canagliflozin (Santa Cruz Biotech, Dallas, Tex.) was used to inhibit SGLT2 function. […] Tissues were then pretreated with 1X insulin or 500 μM canagliflozin for 20 minutes, followed by addition of 1 mM 2-deoxyglucose. Tissues were washed extensively with PBS and lysed in extraction buffer in Precellys® lysis tubes (Precellys, Rockville, Md.).

[8] = test system: ExVive™ Human Kidney Tissue; test: Resazurin conversion in ExVive Human Kidney Tissue; type: cell-based; settings: 0.37-10 ng/ml daily for seven days
Method: (§1) As described in this present disclosure, the ExVive™ Human Kidney Tissue (Organovo, San Diego, Calif.) is a fully human three-dimensional (3D), bioprinted tissue comprised of an apical layer of polarized primary renal proximal tubule epithelial cells (RPTECs) supported by a collagen IV-rich tubulointerstitial interface of primary renal fibroblasts and endothelial cells. As renal fibrosis is a common downstream effect of drug-induced injury, the ExVive™ Human Kidney Tissue was treated with Transforming Growth Factor R (TGFI3 or TGFbeta), a key player of the fibrotic response, for purposes of evaluating tubulointerstitial fibrosis. Thus, to induce renal fibrosis, a healthy ExVive™ Human Kidney Tissue was treated with TGFI3, a key player of the fibrotic response. In particular, each healthy ExVive™ Human Kidney Tissue was dosed daily for seven days with vehicle control, 0.37 ng/ml TGFβ, 1.1ng/m1 TGFβ, 3.3 ng/ml TGFβ, or 10 ng/m1 TGFβ, respectively. Subsequently, after the ExVive™ Human Kidney Tissue was treated with TGFβ, an assessment of the viability and epithelial cell functions of this ExVive™ Human Kidney Tissue was conducted. […] Data shown is the average of 3 tissue samples per condition and is represented as the fold change relative to the vehicle control. *p<0.05; ***p<0.001 for each condition compared to vehicle control.

[9] = test system: ExVive™ Human Kidney Tissue; test: GGT activity in ExVive Human Kidney Tissue; type: cell-based; settings: 0.37-10 ng/ml daily for seven days
Method: as §1

[10] = test system: ExVive™ Human Kidney Tissue; test: Fibrosis-related gene expression by semi-quantitative RTPCR; type: cell-based; settings: 0.37-10 ng/ml daily for seven days
Method: Fibrosis-related gene expression was also assessed on this ExVive™ Human Kidney Tissue treated with TGFβ. […] Data shown is the average of 3 tissue samples per condition. *p<0.0001 for each condition compared to vehicle control.

[11] = test system: ExVive™ Human Kidney Tissue; test: ECM deposition (Gomori's Trichrome, Sirius red) in ExVive tissue; type: cell-based; settings: 0.37-10 ng/ml daily for seven days
Description: Data represents the average of 4 technical replicates per tissue, 3 tissues per condition and is represented as the fold change relative to the vehicle control following normalization to total protein content as measured by Fast Green staining. *p<0.05 for each condition compared to vehicle control.

ACE = target: T3, ACE (Homo sapiens, UniProt P12821); test: ACE function: conversion of angiotensin I to angiotensin II (ELISA); type: cell-based; settings: after 5 ng/ml human angiotensin I for 24 h
T3 construct: ACE protein was detected in both conditioned media and tissue lysates, with higher detection in the tissue lysates; endogenous in cells; host or cells: bioprinted 3D PT tissue: primary human RPTEC on an interstitium of primary human renal fibroblasts and HUVEC
T3 sequence (P12821 30-1306): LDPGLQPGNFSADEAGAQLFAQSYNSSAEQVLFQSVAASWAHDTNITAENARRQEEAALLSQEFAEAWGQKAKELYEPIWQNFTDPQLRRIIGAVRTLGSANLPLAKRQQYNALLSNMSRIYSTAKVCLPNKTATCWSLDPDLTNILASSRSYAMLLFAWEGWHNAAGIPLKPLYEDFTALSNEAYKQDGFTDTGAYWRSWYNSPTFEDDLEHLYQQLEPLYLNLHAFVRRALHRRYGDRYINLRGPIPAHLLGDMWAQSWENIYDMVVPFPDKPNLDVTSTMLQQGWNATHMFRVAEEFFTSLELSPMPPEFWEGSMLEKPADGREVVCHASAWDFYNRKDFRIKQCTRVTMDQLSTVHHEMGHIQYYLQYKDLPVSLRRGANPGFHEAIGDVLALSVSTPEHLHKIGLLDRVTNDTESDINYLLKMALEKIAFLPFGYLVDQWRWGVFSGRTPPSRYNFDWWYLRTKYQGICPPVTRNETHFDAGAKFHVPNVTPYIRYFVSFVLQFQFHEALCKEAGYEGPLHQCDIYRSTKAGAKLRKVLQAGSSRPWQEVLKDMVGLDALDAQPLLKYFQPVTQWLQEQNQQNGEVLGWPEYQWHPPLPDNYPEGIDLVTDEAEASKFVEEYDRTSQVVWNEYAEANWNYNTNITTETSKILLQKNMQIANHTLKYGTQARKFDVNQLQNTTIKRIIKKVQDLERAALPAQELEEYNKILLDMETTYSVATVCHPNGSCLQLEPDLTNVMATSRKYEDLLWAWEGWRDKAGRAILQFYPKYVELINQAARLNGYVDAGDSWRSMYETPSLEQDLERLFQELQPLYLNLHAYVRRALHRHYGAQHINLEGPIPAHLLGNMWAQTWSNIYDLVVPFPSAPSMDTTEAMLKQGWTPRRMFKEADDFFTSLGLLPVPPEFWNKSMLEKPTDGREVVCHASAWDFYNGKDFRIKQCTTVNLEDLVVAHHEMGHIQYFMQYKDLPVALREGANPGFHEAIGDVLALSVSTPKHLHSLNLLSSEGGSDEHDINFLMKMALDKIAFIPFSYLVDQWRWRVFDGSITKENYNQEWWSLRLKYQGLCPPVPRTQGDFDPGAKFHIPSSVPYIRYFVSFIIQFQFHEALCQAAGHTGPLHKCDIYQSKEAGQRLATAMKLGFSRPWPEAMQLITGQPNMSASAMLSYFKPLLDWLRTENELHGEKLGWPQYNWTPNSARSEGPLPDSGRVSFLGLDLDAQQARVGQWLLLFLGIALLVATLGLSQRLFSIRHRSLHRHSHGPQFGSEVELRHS
Method: To evaluate ACE enzyme function, 3D PT tissues were treated for 24 h with 5 ng/ml human angiotensin I (Abeam, Cambridge, Mass.) and angiotensin II was then detected using a competitive ELISA kit from Sigma per the manufacturer's instructions (Sigma-Aldrich, St. Louis, Mo.). Plates were read at 450 nm within 30 minutes of addition of the stop solution (BMG Labtech, Cary, N.C.). The concentration of angiotensin II in the test samples was determined by comparison to the standard curve using GraphPad Prism® software (GraphPad, San Diego, Calif.).

**Q.** For `N.N.[Cl][Pt][Cl]` [cisplatin], which “reduction in GGT activity” value (3D PT tissues [1]) is on record?
**A.** The value was ~50%.

**Q.** What about the “LDH release, increase over vehicle controls” value (3D PT tissues [2]) of the same compound?
**A.** Its value is 3 fold.

**Q.** What about the “RPTEC proliferation (PCNA)” value (3D PT tissues [3]) of the same compound?
**A.** The value was “dose-dependent proliferative response; also recorded: dose-dependent increase in proliferating RPTEC”.

**Q.** And the “epithelial morphology (H&E)” value (3D PT tissues [4])?
**A.** Its value is “more squamous morphology and loss of nuclei”.

**Q.** What does the source list for `CN/C(=N/CCSCc1nc[nH]c1C)NC#N` [cimetidine]?
**A.** RPTEC proliferation (PCNA) (3D PT tissues [3]): low levels of RPTEC proliferation; protection against cisplatin-induced loss of viability and epithelial function (3D PT tissues [5]): successfully protected; urinary cystatin C following cisplatin administration [6]: decreased urinary cystatin C

**Q.** What does the source list for Lucifer yellow?
**A.** Papp (3D PT tissues [7]): 2.93e-06 cm/s and 2.63e-06 cm/s and 2.73e-06 cm/s and 2.66e-06 cm/s and 3.74e-06 cm/s and 3.11e-06 cm/s; Papp (3D PT tissues [7]; mean): 2.97 ± 0.17 ×10^−6 cm/s; average Papp (3D PT tissues [7]; Lucifer yellow, 3D PT tissues): 2.97 ×10⁻⁶ cm/s

**Q.** For rhodamine 123 [R123], which “increase in fluorescence over control tissues” value (P-gp) is on record?
**A.** Its value is 4 fold.

**Q.** Which “increase in intracellular 2-DG” value (SGLT2; tissues in normal tissue media) does the source give for “insulin: Insulin-Transferrin-Selenium (Gibco) used to stimulate glucose uptake” here?
**A.** The value was 4 fold.

**Q.** And the “increase in glucose uptake” value (SGLT2; tissues starved overnight)?
**A.** The value was 8 fold.

**Q.** For `Cc1ccc([C@@H]2O[C@H](CO)[C@@H](O)[C@H](O)[C@H]2O)cc1Cc1ccc(-c2ccc(F)cc2)s1` [canagliflozin], which “decrease of insulin-induced intracellular 2-DG” value (SGLT2; normal tissue media, co-administration with insulin, 500 μM canagliflozin) is on record?
**A.** The value was 50%.

**Q.** What about the “effect on insulin-induced glucose uptake” value (SGLT2; tissues starved overnight, 500 μM canagliflozin) of the same compound?
**A.** The value was “significantly reduced by canagliflozin to levels indistinguishable from the control tissues”.

**Q.** With TGFβ as the compound, how does the “Resazurin conversion (overall tissue metabolic activity)” value [8] read?
**A.** Its value is “No statistically significant differences”.

**Q.** And the “GGT activity (epithelial cell function)” value [9]?
**A.** The value was “Statistically significant reduction in RPTEC function was detected with higher doses; also recorded: loss of epithelial cell function at the highest dose”.

**Q.** And the “fibrosis-related gene expression (COL1A1, CTGF, FAP, PDGFRB)” value [10]?
**A.** The value was “induction of the fibrotic markers; also recorded: increase in the expression of fibrosis-related genes”.

**Q.** And the “tissue thickness and extracellular matrix deposition” value [11]?
**A.** Its value is “induces tissue thickening and increased extracellular matrix deposition; also recorded: extensive ECM deposition in the interstitium”.

**Q.** With “angiotensin I: human angiotensin I (Abcam), ACE substrate (DRVYIHPFHL; Angiotensin-1; UniProt P01019 25-34, looked up)” as the compound, how does the “angiotensin II detected” value (ACE) read?
**A.** Its value is 0.4 pg/mL.
